This note sets out measurements from patent publication US4639433A, “Glycopeptide derivatives” (Eli Lilly and Company, priority 1985, dated 1987).

Common to all, as to conditions: agar dilution
Test [1] relates to Haemophilus influenzae 76.
For test [2], the system named is Staphylococcus aureus X400.
For test [3], the system named is Staphylococcus aureus V41.
Test [4] relates to Streptococcus faecium ATCC 9790.
Test [5] has as its system Escherichia coli TEM.
Test [6] deals with Staphylococcus aureus NRRL B313.
Test [7] concerns Klebsiella pneumoniae KAE.
The test system of test [8] is Streptococcus sp. group D 2041.
Test [9] concerns Haemophilus influenzae C.L.
Test [10] has as its system Klebsiella pneumoniae X26.
Test [11] has as its system Escherichia coli N10.
In test [12] the test system is Streptococcus pyogenes C203.
Test [13] deals with Klebsiella pneumoniae X68.
Test [14] relates to Escherichia coli EC14.
The test system of test [15] is Streptococcus pneumoniae Park 1.
The subject of test [16] is Staphylococcus aureus S13E.
The test system of test [17] is Staphylococcus epidermidis EPI1.
The test system of test [18] is Staphylococcus epidermidis 222.

Values after ≈ are worked out from the molar mass of the structure shown.

Take `CNC(CC(C)C)C(=O)NC1C(=O)NC(CC(N)=O)C(=O)NC2C(=O)NC3C(=O)NC(C(=O)NC(C(=O)O)c4cc(O)cc(O)c4-c4cc3ccc4O)C(O)c3ccc(c(Cl)c3)Oc3cc2cc(c3OC2OC(CO)C(O)C(O)C2OC2CC(C)(NC(=O)CCCCCBr)C(O)C(C)O2)Oc2ccc(cc2Cl)C1O` (stereo not drawn) [Compound 35, N^van --(6-bromo-n-hexyl)vancomycin]: the MIC entry was “-- (not active at 128 mcg/ml)” in test [1]; 4 µg/mL (≈ 2.46 µM) in test [2]; 2 µg/mL (≈ 1.23 µM) in [3]; 2 µg/mL (≈ 1.23 µM) in test [4]; “-- (not active at 128 mcg/ml)” in test [5]; 2 µg/mL (≈ 1.23 µM) in [6]. For the same compound, the MIC entry in [7] is “-- (not active at 128 mcg/ml)”; in [8] it was 8 µg/mL (≈ 4.92 µM); in test [9] it was “-- (not active at 128 mcg/ml)”; in test [10], “-- (not active at 128 mcg/ml)”; in test [11], “-- (not active at 128 mcg/ml)”; in [12], 2 µg/mL (≈ 1.23 µM). The MIC entry in test [13] is “-- (not active at 128 mcg/ml)”; in [14] it was “-- (not active at 128 mcg/ml)”; in test [15], 1 µg/mL (≈ 0.615 µM); in test [16], 2 µg/mL (≈ 1.23 µM); in [17], 8 µg/mL (≈ 4.92 µM); in [18] it was 4 µg/mL (≈ 2.46 µM).
As for `CCCCCCCCCCCC(=O)N(C)C(CC(C)C)C(=O)NC1C(=O)NC(CC(N)=O)C(=O)NC2C(=O)NC3C(=O)NC(C(=O)NC(C(=O)O)c4cc(O)cc(O)c4-c4cc3ccc4O)C(O)c3ccc(c(Cl)c3)Oc3cc2cc(c3OC2OC(CO)C(O)C(O)C2OC2CC(C)(N)C(O)C(C)O2)Oc2ccc(cc2Cl)C1O` (stereo not drawn) [Compound 13, N^leu --(1-oxo-n-dodecyl)vancomycin], the MIC is 32 µg/mL (≈ 19.6 µM) in test [1]; 8 µg/mL (≈ 4.9 µM) in [2]; 8 µg/mL (≈ 4.9 µM) in test [3]; 8 µg/mL (≈ 4.9 µM) in test [4]; “-- (not active at 128 mcg/ml)” in test [5]; 8 µg/mL (≈ 4.9 µM) in [6]. Further, the MIC entry is “-- (not active at 128 mcg/ml)” in test [7]; 8 µg/mL (≈ 4.9 µM) in [8]; 128 µg/mL (≈ 78.5 µM) in [9]; “-- (not active at 128 mcg/ml)” in [10]; “-- (not active at 128 mcg/ml)” in test [11]; 8 µg/mL (≈ 4.9 µM) in test [12]. In addition, the MIC entry is “-- (not active at 128 mcg/ml)” in test [13]; “-- (not active at 128 mcg/ml)” in test [14]; 8 µg/mL (≈ 4.9 µM) in test [15]; 8 µg/mL (≈ 4.9 µM) in test [16]; 32 µg/mL (≈ 19.6 µM) in test [17]; 8 µg/mL (≈ 4.9 µM) in test [18].
In the case of `CNC(CC(C)C)C(=O)NC1C(=O)NC(CC(N)=O)C(=O)NC2C(=O)NC3C(=O)NC(C(=O)NC(C(=O)O)c4cc(O)cc(O)c4-c4cc3ccc4O)C(O)c3ccc(c(Cl)c3)Oc3cc2cc(c3OC2OC(CO)C(O)C(O)C2OC2CC(C)(NC(=O)CCC(C)=O)C(O)C(C)O2)Oc2ccc(cc2Cl)C1O` (stereo not drawn) [Compound 36, N^van --(3-acetyl-1-oxo-n-propyl)vancomycin], the MIC entry is “-- (not active at 128 mcg/ml)” in test [1]; 2 µg/mL (≈ 1.29 µM) in [2]; 2 µg/mL (≈ 1.29 µM) in test [3]; 4 µg/mL (≈ 2.59 µM) in test [4]; “-- (not active at 128 mcg/ml)” in test [5]; 2 µg/mL (≈ 1.29 µM) in [6]. In addition, the MIC result in test [7] is “-- (not active at 128 mcg/ml)”; in [8], 8 µg/mL (≈ 5.17 µM); in test [9] it was “-- (not active at 128 mcg/ml)”; in test [10] it was “-- (not active at 128 mcg/ml)”; in test [11], “-- (not active at 128 mcg/ml)”; in [12], 1 µg/mL (≈ 0.646 µM). Also, the MIC entry in test [13] was “-- (not active at 128 mcg/ml)”; in test [14], “-- (not active at 128 mcg/ml)”; in test [15], 1 µg/mL (≈ 0.646 µM); in test [16], 4 µg/mL (≈ 2.59 µM); in test [17], 16 µg/mL (≈ 10.3 µM); in test [18], 4 µg/mL (≈ 2.59 µM).
In the case of `C=CCCCCCCCCC(=O)NC1(C)CC(OC2C(Oc3c4cc5cc3Oc3ccc(cc3Cl)C(O)C(NC(=O)C(CC(C)C)N(C)C(=O)CCCCCCCCC=C)C(=O)NC(CC(N)=O)C(=O)NC5C(=O)NC3C(=O)NC(C(=O)NC(C(=O)O)c5cc(O)cc(O)c5-c5cc3ccc5O)C(O)c3ccc(c(Cl)c3)O4)OC(CO)C(O)C2O)OC(C)C1O` (stereo not drawn) [Compound 11, N^van,N^leu --(1-oxo-10-n-decenyl)vancomycin], the MIC amounted to 32 µg/mL (≈ 18 µM) in test [1]; 16 µg/mL (≈ 8.98 µM) in test [2]; 8 µg/mL (≈ 4.49 µM) in test [3]; 8 µg/mL (≈ 4.49 µM) in [4]; 64 µg/mL (≈ 35.9 µM) in [5]; 8 µg/mL (≈ 4.49 µM) in test [6]. In addition, the MIC in test [7] was 128 µg/mL (≈ 71.8 µM); in test [8] it was 16 µg/mL (≈ 8.98 µM); in [9], 32 µg/mL (≈ 18 µM); in test [10] it was 128 µg/mL (≈ 71.8 µM); in [11], 128 µg/mL (≈ 71.8 µM); in [12], 2 µg/mL (≈ 1.12 µM). In addition, the MIC was 128 µg/mL (≈ 71.8 µM) in test [13]; 128 µg/mL (≈ 71.8 µM) in [14]; 4 µg/mL (≈ 2.24 µM) in test [15]; 8 µg/mL (≈ 4.49 µM) in test [16]; 64 µg/mL (≈ 35.9 µM) in test [17]; 16 µg/mL (≈ 8.98 µM) in test [18].
In the case of `CCCCCCCC(=O)NC1(C)CC(OC2C(Oc3c4cc5cc3Oc3ccc(cc3Cl)C(O)C(NC(=O)C(CC(C)C)N(C)C(=O)CCCCCCC)C(=O)NC(CC(N)=O)C(=O)NC5C(=O)NC3C(=O)NC(C(=O)NC(C(=O)O)c5cc(O)cc(O)c5-c5cc3ccc5O)C(O)c3ccc(c(Cl)c3)O4)OC(CO)C(O)C2O)OC(C)C1O` (stereo not drawn) [Compound 5, N^van,N^leu --di(1-oxo-n-octyl)vancomycin], the MIC result in [1] was “-- (not active at 128 mcg/ml)”; in [2], 32 µg/mL (≈ 18.8 µM); in [3] it was 32 µg/mL (≈ 18.8 µM); in test [4], 32 µg/mL (≈ 18.8 µM); in test [5], “-- (not active at 128 mcg/ml)”; in test [6], 32 µg/mL (≈ 18.8 µM). Also, the MIC result in [7] is “-- (not active at 128 mcg/ml)”; in [8], 32 µg/mL (≈ 18.8 µM); in test [9], “-- (not active at 128 mcg/ml)”; in test [10], “-- (not active at 128 mcg/ml)”; in [11] it was “-- (not active at 128 mcg/ml)”; in test [12], 32 µg/mL (≈ 18.8 µM). In addition, the MIC entry in [13] was “-- (not active at 128 mcg/ml)”; in test [14], “-- (not active at 128 mcg/ml)”; in test [15], 32 µg/mL (≈ 18.8 µM); in test [16], 32 µg/mL (≈ 18.8 µM); in test [17] it was “-- (not active at 128 mcg/ml)”; in test [18], 64 µg/mL (≈ 37.6 µM).
For the compound `CCC(CC)C(=O)NC1(C)CC(OC2C(Oc3c4cc5cc3Oc3ccc(cc3Cl)C(O)C3NC(=O)C(NC(=O)C5NC(=O)C(CC(N)=O)NC(=O)C(NC(=O)C(CC(C)C)NC)C(O)c5ccc(c(Cl)c5)O4)c4ccc(O)c(c4)-c4c(O)cc(O)cc4C(C(=O)O)NC3=O)OC(CO)C(O)C2O)OC(C)C1O` (stereo not drawn) [Compound 22, N^van --(2-ethyl-1-oxo-n-butyl)vancomycin], the MIC in test [1] is 128 µg/mL (≈ 82.7 µM); in test [2], 2 µg/mL (≈ 1.29 µM); in test [3], 2 µg/mL (≈ 1.29 µM); in [4], 2 µg/mL (≈ 1.29 µM); in test [5], “-- (not active at 128 mcg/ml)”; in [6], 2 µg/mL (≈ 1.29 µM). Besides, the MIC result is “-- (not active at 128 mcg/ml)” in test [7]; 8 µg/mL (≈ 5.17 µM) in test [8]; 128 µg/mL (≈ 82.7 µM) in [9]; “-- (not active at 128 mcg/ml)” in [10]; “-- (not active at 128 mcg/ml)” in test [11]; 2 µg/mL (≈ 1.29 µM) in test [12]. The MIC result in test [13] is “-- (not active at 128 mcg/ml)”; in [14] it was “-- (not active at 128 mcg/ml)”; in test [15], 2 µg/mL (≈ 1.29 µM); in [16], 2 µg/mL (≈ 1.29 µM); in [17], 8 µg/mL (≈ 5.17 µM); in test [18], 2 µg/mL (≈ 1.29 µM).
For `CCCCCCCCCC(=O)NC1(C)CC(OC2C(Oc3c4cc5cc3Oc3ccc(cc3Cl)C(O)C(NC(=O)C(CC(C)C)N(C)C(=O)CCCCCCCCC)C(=O)NC(CC(N)=O)C(=O)NC5C(=O)NC3C(=O)NC(C(=O)NC(C(=O)O)c5cc(O)cc(O)c5-c5cc3ccc5O)C(O)c3ccc(c(Cl)c3)O4)OC(CO)C(O)C2O)OC(C)C1O` (stereo not drawn) [Compound 8, N^van,N^leu-di(1-oxo-n-decyl)vancomycin], the MIC result was “-- (not active at 128 mcg/ml)” in test [1]; 4 µg/mL (≈ 2.28 µM) in test [2]; 4 µg/mL (≈ 2.28 µM) in test [3]; 8 µg/mL (≈ 4.55 µM) in test [4]; “-- (not active at 128 mcg/ml)” in test [5]; 2 µg/mL (≈ 1.14 µM) in test [6]. Further, the MIC entry in test [7] was “-- (not active at 128 mcg/ml)”; in [8] it was 8 µg/mL (≈ 4.55 µM); in [9], “-- (not active at 128 mcg/ml)”; in test [10], “-- (not active at 128 mcg/ml)”; in test [11], “-- (not active at 128 mcg/ml)”; in [12], 4 µg/mL (≈ 2.28 µM). The MIC entry is “-- (not active at 128 mcg/ml)” in test [13]; “-- (not active at 128 mcg/ml)” in test [14]; 16 µg/mL (≈ 9.1 µM) in test [15]; 8 µg/mL (≈ 4.55 µM) in [16]; 32 µg/mL (≈ 18.2 µM) in test [17]; 8 µg/mL (≈ 4.55 µM) in [18].
